Reference: patent US20090036444A1, “5-5-Membered fused heterocyclic compound and use thereof as HCV polymerase inhibitor” (priority 2003, published 2009)
Where a name gives a salt, the structure may show the parent alone. Read-outs that look alike come from different tables or passages of the source.

What was measured:
[1] = target: T1, HCV polymerase H544 1a 3X (UniProt P27958); experiment: Assay of enzyme (HCV polymerase) inhibitory activity, H544 1a 3X; type: biochemical
T1 construct: fused on or other part: 6 His tag at the C-terminus, for the BK (1b) enzyme

[2] = target: T2, HCV polymerase H544 1b 3X (Hepatitis C virus genotype 1b, UniProt P26663); experiment: Assay of enzyme (HCV polymerase) inhibitory activity, H544 1b 3X; type: biochemical, HCV BK strain
T2 construct: a region encoding NS5B (J Virol 1991 March, 65(3), 1105-13, 544 amino acids after deletion of 47 amino acids on the C-terminal); 6 His (C); made in house; host or cells: Escherichia coli
Text: The evaluation of the HCV polymerase inhibitory activity of the compound of the present invention is explained in the following. This polymerase is an enzyme coded for by the non-structural protein region called NS5B on the genome RNA of HCV (EMBO J., 15:12-22, 1996).
Using, as a template, a cDNA clone corresponding to the full length genome RNA of HCV BK strain obtained from the blood of a patient with hepatitis C, a region encoding NS5B (J Virol 1991 March, 65(3), 1105-13, 544 amino acids after deletion of 47 amino acids on the C-terminal) was amplified by PCR. The objective gene was prepared by adding a 6 His tag {base pair encoding 6 continuous histidine (His)} to the 3′ end thereof and transformed to Escherichia coli. The Escherichia coli capable of producing the objective protein was cultured. The obtained cells were suspended in a buffer solution and crushed in a microfluidizer. The supernatant was obtained by centrifugation and applied to various column chromatographys {mono-S, Sephacryl S-200 (Pharmacia)}, inclusive of metal chelate chromatography, to give a standard enzyme product.
Using a synthetic primer designed based on the sequence of HCV genomic 3′ untranslated region, a DNA fragment (148 bp) containing polyU and 3′X sequence was entirely synthesized and cloned into plasmid pBluescript SK II (+) (Stratagene). The cDNA encoding full length NS5B, which was prepared in i) above, was digested with restriction enzyme KpnI to give a cDNA fragment containing the nucleotide sequence of from the restriction enzyme cleavage site to the termination codon. This cDNA fragment was inserted into the upstream of 3′ untranslated region of the DNA in pBluescript SK II(+) and ligated. The about 450 bp inserted DNA sequence was used as a template in the preparation of substrate RNA. This plasmid was cleaved immediately after the 3′X sequence, linearized and purified by phenol-chloroform treatment and ethanol precipitation to give DNA.
RNA was synthesized (37° C., 3 hr) by run-off method using this purified DNA as a template, a promoter of pBluescript SK II(+), MEGAscript RNA synthesis kit (Ambion) and T7 RNA polymerase. DNase I was added and the mixture was incubated for 1 hr. The template DNA was removed by decomposition to give a crude RNA product. This crude product was treated with phenol-chloroform and purified by ethanol precipitation to give the objective substrate RNA.
This RNA was applied to formaldehyde denaturation agarose gel electrophoresis to confirm the quality thereof and preserved at −80° C.
A test substance (compound of the present invention) and a reaction mixture (30 μl) having the following composition were reacted at 25° C. for 90 min. 10% Trichloroacetic acid at 4° C. and 1% sodium pyrophosphate solution (150 μl) were added to this reaction mixture to stop the reaction. The reaction mixture was left standing in ice for 15 min to insolubilize RNA. This RNA was trapped on a glass filter (Whatman GF/C and the like) upon filtration by suction. This filter was washed with a solution containing 1% trichloroacetic acid and 0.1% sodium pyrophosphate, washed with 90% ethanol and dried. A liquid scintillation cocktail (Packard) was added and the radioactivity of RNA synthesized by the enzyme reaction was measured on a liquid scintillation counter.
The HCV polymerase inhibitory activity (IC50) of the compound of the present invention was calculated from the values of radioactivity of the enzyme reaction with and without the test substance.
The results are shown in Table 18, wherein each symbol means that IC50 falls within the following range.
Reaction mixture: HCV polymerase (0.5 μg/ml) obtained in i), substrate RNA (5 μg/ml) obtained in ii), ATP (50 μM), GTP (50 μM), CTP (50 μM), UTP (2 μM), [5,6-^3H] UTP (46 Ci/mmol (Amersham), 1 μCi) 20 mM Tris-HCl (pH 7.5), EDTA (1 mM), MgCl2 (5 mM), NaCl (50 mM), DTT (1 mM), BSA (0.01%)

[3] = 25° C., 90 min, [5,6-3H]UTP incorporation, read-out: H544 1a 3X IC50
[4] = read-out: H544 1a 3X IC50, 25° C., 90 min, [5,6-3H]UTP incorporation

T2 sequence (P26663 2420-2963): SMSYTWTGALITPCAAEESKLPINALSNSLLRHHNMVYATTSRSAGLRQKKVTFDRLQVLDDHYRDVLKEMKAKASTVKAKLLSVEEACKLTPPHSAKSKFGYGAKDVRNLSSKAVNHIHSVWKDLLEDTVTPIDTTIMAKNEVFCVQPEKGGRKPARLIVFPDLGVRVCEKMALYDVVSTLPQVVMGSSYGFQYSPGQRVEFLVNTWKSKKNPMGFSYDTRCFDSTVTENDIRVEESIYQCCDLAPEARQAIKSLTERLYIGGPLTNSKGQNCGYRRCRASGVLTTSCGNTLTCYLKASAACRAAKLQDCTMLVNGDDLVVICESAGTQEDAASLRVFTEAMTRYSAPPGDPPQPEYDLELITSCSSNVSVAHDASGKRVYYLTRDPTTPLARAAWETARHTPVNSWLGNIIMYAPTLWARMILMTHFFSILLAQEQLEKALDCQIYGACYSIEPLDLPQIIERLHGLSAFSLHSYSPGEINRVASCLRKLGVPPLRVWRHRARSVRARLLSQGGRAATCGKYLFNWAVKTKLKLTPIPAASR

| Structure (SMILES) | IC50 [1, 3] [nM] | IC50 [2] [nM] | IC50 [1, 4] [nM] |
| --- | --- | --- | --- |
| CC(C)(C)NC(=O)Cn1c(-c2ccc(OCc3ccccc3)cc2)c(C2CCCCC2)c2sc(C(=O)O)cc21 [Example 44, 5-(4-benzyloxyphenyl)-4-(tert-butylcarbamoylmethyl)-6-cyclohexyl-4H-thieno[3,2-b]pyrrole-2-carboxylic acid] | 100 to 1000 | 100 to 1000 |  |
| CN(C)C(=O)Cn1c(-c2ccc(OCc3ccccc3N3CCOCC3)cc2)c(C2CCCCC2)c2sc(C(=O)O)cc21 [Example 38, 6-cyclohexyl-4-dimethylcarbamoylmethyl-5-[4-(2-morpholinobenzyloxy)phenyl]-4H-thieno[3,2-b]pyrrole-2-carboxylic acid] | < 100 | < 100 |  |
| CN(C)C(=O)Cn1c(-c2ccc(OCc3ccccc3)cc2)c(C2CCCCC2)c2sc(C(=O)O)cc21 [Example 14, 5-(4-benzyloxyphenyl)-6-cyclohexyl-4-dimethylcarbamoylmethyl-4H-thieno[3,2-b]pyrrole-2-carboxylic acid] | < 100 | < 100 |  |
| O=C(O)c1cc2c(s1)c(C1CCCCC1)c(-c1ccc(OCc3ccccc3)cc1)n2CC1CCCCC1 [Example 48, 5-(4-benzyloxyphenyl)-6-cyclohexyl-4-cyclohexylmethyl-4H-thieno[3,2-b]pyrrole-2-carboxylic acid] | 100 to 1000 | 100 to 1000 |  |
| CC(C(=O)N(C)c1ccc(N2CCOCC2)cc1)n1c(-c2ccc(OCc3ccccc3)cc2)c(C2CCCCC2)c2sc(C(=O)O)cc21 (stereo not drawn) [Example 60, 5-(4-benzyloxyphenyl)-6-cyclohexyl-4-{1-[N-methyl-N-(4-morpholinophenyl)carbamoyl]ethyl}-4H-thieno[3,2-b]pyrrole-2-carboxylic acid hydrochloride] |  | 100 to 1000 |  |
| COc1ccc(-c2c(C3CCCCC3)c3sc(C(=O)O)cc3n2CC(=O)NC(C)(C)C)cc1 [Example 33, 4-(tert-butylcarbamoylmethyl)-6-cyclohexyl-5-(4-methoxyphenyl)-4H-thieno[3,2-b]pyrrole-2-carboxylic acid] | < 100 | 100 to 1000 |  |
| Cn1c(-c2ccccc2OCc2ccccc2)c(C2CCCCC2)c2sc(C(=O)O)cc21 [Example 35, 5-(2-benzyloxyphenyl)-6-cyclohexyl-4-methyl-4H-thieno[3,2-b]pyrrole-2-carboxylic acid] | 100 to 1000 | 100 to 1000 |  |
| CN(C)CCn1c(-c2ccc(OCc3cc(S(C)(=O)=O)ccc3N3CCOCC3)cc2)c(C2CCCCC2)c2sc(C(=O)O)cc21 [Example 56, 6-cyclohexyl-4-(2-dimethylaminoethyl)-5-[4-(5-methanesulfonyl-2-morpholinobenzyloxy)phenyl]-4H-thieno[3,2-b]pyrrole-2-carboxylic acid dihydrochloride] |  | < 100 | < 100 |
| CN(C)C(=O)Cn1c(-c2ccc(OC3CCCN(C(=O)OC(C)(C)C)C3)cc2)c(C2CCCCC2)c2sc(C(=O)O)cc21 (stereo not drawn) [Example 37, 5-[4-(1-tert-butoxycarbonylpiperidin-3-yloxy)phenyl]-6-cyclohexyl-4-dimethylcarbamoylmethyl-4H-thieno[3,2-b]pyrrole-2-carboxylic acid] | < 100 | < 100 |  |
| CN(CCN1CCOCC1)CCn1c(-c2ccc(OCc3ccccc3)cc2)c(C2CCCCC2)c2sc(C(=O)O)cc21 [Example 58, 5-(4-benzyloxyphenyl)-6-cyclohexyl-4-{2-[N-methyl-N-(2-morpholinoethyl)amino]ethyl}-4H-thieno[3,2-b]pyrrole-2-carboxylic acid dihydrochloride] |  | 100 to 1000 | 100 to 1000 |
| Cn1c(-c2ccc(OCc3ccccc3)cc2)c(C2CCCCC2)c2sc(C(=O)O)cc21 [Example 12, 5-(4-benzyloxyphenyl)-6-cyclohexyl-4-methyl-4H-thieno[3,2-b]pyrrole-2-carboxylic acid] | 100 to 1000 | 100 to 1000 |  |
| Cn1c(-c2ccc(OCc3cc(N)ccc3N3CCN(S(C)(=O)=O)CC3)cc2)c(C2CCCCC2)c2sc(C(=O)O)cc21 [Example 19, 5-(4-[5-amino-2-(4-methanesulfonylpiperazin-1-yl)benzyloxy]phenyl)-6-cyclohexyl-4-methyl-4H-thieno[3,2-b]pyrrole-2-carboxylic acid hydrochloride] | < 100 | < 100 |  |
| CN(CC(=O)N1CCCCC1)C(=O)Cn1c(-c2ccc(OCc3ccccc3)cc2)c(C2CCCCC2)c2sc(C(=O)O)cc21 [Example 50, 5-(4-benzyloxyphenyl)-6-cyclohexyl-4-{[N-methyl-N-(2-oxo-2-piperidinoethyl)carbamoyl]methyl}-4H-thieno[3,2-b]pyrrole-2-carboxylic acid] | < 100 | < 100 |  |
| O=C(Cn1c(-c2ccc(OCc3ccccc3)cc2)c(C2CCCCC2)c2sc(C(=O)O)cc21)Nc1ccc(N2CCOCC2)cc1 [Example 51, 5-(4-benzyloxyphenyl)-6-cyclohexyl-4-[(4-morpholinophenylcarbamoyl)methyl]-4H-thieno[3,2-b]pyrrole-2-carboxylic acid hydrochloride] | < 100 | < 100 |  |
| CN(C)CC(=O)N(C)c1ccc(N2CCOCC2)c(COc2ccc(-c3c(C4CCCCC4)c4sc(C(=O)O)cc4n3C)cc2)c1 [Example 43, 6-cyclohexyl-5-(4-{5-[N-(2-dimethylaminoacetyl)-N-methylamino]-2-morpholinobenzyloxy}phenyl)-4-methyl-4H-thieno[3,2-b]pyrrole-2-carboxylic acid dihydrochloride] |  | < 100 | < 100 |
| CN(C(=O)CN1CCOCC1)c1ccc(N2CCOCC2)c(COc2ccc(-c3c(C4CCCCC4)c4sc(C(=O)O)cc4n3C)cc2)c1 [Example 57, 6-cyclohexyl-4-methyl-5-(4-{5-[N-methyl-N-(2-morpholinoacetyl)amino]-2-morpholinobenzyloxy}phenyl)-4H-thieno[3,2-b]pyrrole-2-carboxylic acid dihydrochloride] |  | < 100 | < 100 |
| COc1ccc(-c2c(C3CCCCC3)c3sc(C(=O)O)cc3n2CC(=O)NCc2ccccc2)cc1 [Example 32, 4-(benzylcarbamoylmethyl)-6-cyclohexyl-5-(4-methoxyphenyl)-4H-thieno[3,2-b]pyrrole-2-carboxylic acid] | < 100 | < 100 |  |
| O=C(O)c1cc2nc(-c3ccc(OCc4cc(N5CCCC5=O)ccc4N4CCOCC4)cc3)n(C3CCCCC3)c2s1 [Example 5, 3-cyclohexyl-2-{4-[2-morpholino-5-(2-oxopyrrolidin-1-yl)benzyloxy]phenyl}-3H-thieno[2,3-d]imidazole-5-carboxylic acid] | 100 to 1000 | 100 to 1000 |  |
| Cn1c(-c2ccc(OCc3ccccc3N3CCOCC3)cc2)c(C2CCCCC2)c2sc(C(=O)O)cc21 [Example 31, 6-cyclohexyl-4-methyl-5-[4-(2-morpholinobenzyloxy)phenyl]-4H-thieno[3,2-b]pyrrole-2-carboxylic acid hydrochloride] | < 100 | < 100 |  |
| CN(CCN1CCCCC1)CCn1c(-c2ccc(OCc3ccccc3)cc2)c(C2CCCCC2)c2sc(C(=O)O)cc21 [Example 59, 5-(4-benzyloxyphenyl)-6-cyclohexyl-4-{2-[N-methyl-N-(2-piperidinoethyl)amino]ethyl}-4H-thieno[3,2-b]pyrrole-2-carboxylic acid dihydrochloride] |  | < 100 | 100 to 1000 |
